Data as given in PubChem BioAssay (NCI).
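Results reflect a 48-hour exposure of cells in 96-well plates to compound at five concentrations. TGI is the concentration that stops growth completely.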

Columns and labels:
Test in all cases: NCI anticancer screen, dose series, 48 h
HOP-18 NSCLC = system: HOP-18 NSCLC
LOX IMVI melanoma = system: LOX IMVI melanoma
RPMI-8226 leukemia = system: RPMI-8226 leukemia
HCC-2998 colon = system: HCC-2998 colon
UACC-257 melanoma = system: UACC-257 melanoma
SW-620 colon = system: SW-620 colon
OVCAR-4 ovarian = system: OVCAR-4 ovarian
MALME-3M melanoma = system: MALME-3M melanoma
K-562 leukemia = system: K-562 leukemia
OVCAR-5 ovarian = system: OVCAR-5 ovarian
SNB-78 CNS = system: SNB-78 CNS
UACC-62 melanoma = system: UACC-62 melanoma
DMS 273 small cell lung = system: DMS 273 small cell lung
LXFL 529 NSCLC = system: LXFL 529 NSCLC
EKVX NSCLC = system: EKVX NSCLC
HCT-116 colon = system: HCT-116 colon
SNB-19 CNS = system: SNB-19 CNS
UO-31 renal = system: UO-31 renal
ACHN renal = system: ACHN renal
XF 498 CNS = system: XF 498 CNS
HT29 colon = system: HT29 colon
A549 NSCLC = system: A549 NSCLC
CAKI-1 renal = system: CAKI-1 renal
786-0 renal = system: 786-0 renal
A498 renal = system: A498 renal
HOP-92 NSCLC = system: HOP-92 NSCLC
RXF 393 renal = system: RXF 393 renal
SF-295 CNS = system: SF-295 CNS
SF-268 CNS = system: SF-268 CNS
HCT-15 colon = system: HCT-15 colon
IGROV1 ovarian = system: IGROV1 ovarian
HOP-62 NSCLC = system: HOP-62 NSCLC
TK-10 renal = system: TK-10 renal
M14 melanoma = system: M14 melanoma
DLD-1 colon = system: DLD-1 colon
SK-OV-3 ovarian = system: SK-OV-3 ovarian
M19-MEL melanoma = system: M19-MEL melanoma
SK-MEL-5 melanoma = system: SK-MEL-5 melanoma
SR leukemia = system: SR leukemia
NCI-H226 lung = system: NCI-H226 lung
KM20L2 colon = system: KM20L2 colon
SNB-75 CNS = system: SNB-75 CNS
CCRF-CEM leukemia = system: CCRF-CEM leukemia
DMS 114 small cell lung = system: DMS 114 small cell lung
KM12 colon = system: KM12 colon
SF-539 CNS = system: SF-539 CNS
U251 CNS = system: U251 CNS
COLO 205 colon = system: COLO 205 colon
NCI-H460 lung = system: NCI-H460 lung
OVCAR-3 ovarian = system: OVCAR-3 ovarian
SK-MEL-28 melanoma = system: SK-MEL-28 melanoma
SK-MEL-2 melanoma = system: SK-MEL-2 melanoma
MOLT-4 leukemia = system: MOLT-4 leukemia
NCI-H522 lung = system: NCI-H522 lung
NCI-H23 lung = system: NCI-H23 lung
SN12C renal = system: SN12C renal
OVCAR-8 ovarian = system: OVCAR-8 ovarian
HL-60(TB) leukemia = system: HL-60(TB) leukemia

Cc1c(Cl)cccc1N1C(=O)C(Cl)=C(Cl)C1=O
TGI (HOP-18 NSCLC): > 100 µM | TGI (LOX IMVI melanoma): > 100 µM | TGI (RPMI-8226 leukemia): > 89.8 µM | TGI (HCC-2998 colon): > 100 µM | TGI (UACC-257 melanoma): > 100 µM | TGI (SW-620 colon): > 100 µM | TGI (OVCAR-4 ovarian): > 100 µM | TGI (MALME-3M melanoma): > 100 µM | TGI (K-562 leukemia): > 31.6 µM | TGI (OVCAR-5 ovarian): > 100 µM | TGI (SNB-78 CNS): > 100 µM | TGI (UACC-62 melanoma): > 100 µM | TGI (DMS 273 small cell lung): > 100 µM | TGI (LXFL 529 NSCLC): > 100 µM | TGI (EKVX NSCLC): > 100 µM | TGI (HCT-116 colon): > 100 µM | TGI (SNB-19 CNS): > 100 µM | TGI (UO-31 renal): > 100 µM | TGI (ACHN renal): > 100 µM | TGI (XF 498 CNS): > 100 µM | TGI (HT29 colon): > 100 µM | TGI (A549 NSCLC): > 100 µM | TGI (CAKI-1 renal): > 80.9 µM | TGI (786-0 renal): > 100 µM | TGI (A498 renal): > 100 µM | TGI (HOP-92 NSCLC): > 100 µM | TGI (RXF 393 renal): 97.2 µM | TGI (SF-295 CNS): > 100 µM | TGI (SF-268 CNS): > 100 µM | TGI (HCT-15 colon): > 100 µM | TGI (IGROV1 ovarian): > 100 µM | TGI (HOP-62 NSCLC): > 100 µM | TGI (TK-10 renal): > 100 µM | TGI (M14 melanoma): > 100 µM | TGI (DLD-1 colon): > 100 µM | TGI (SK-OV-3 ovarian): > 100 µM | TGI (M19-MEL melanoma): > 100 µM | TGI (SK-MEL-5 melanoma): > 100 µM | TGI (SR leukemia): 79.6 µM | TGI (NCI-H226 lung): > 100 µM | TGI (KM20L2 colon): > 100 µM | TGI (SNB-75 CNS): > 100 µM | TGI (CCRF-CEM leukemia): 27.8 µM | TGI (DMS 114 small cell lung): > 100 µM | TGI (KM12 colon): > 100 µM | TGI (SF-539 CNS): > 100 µM | TGI (U251 CNS): > 100 µM | TGI (COLO 205 colon): > 100 µM | TGI (NCI-H460 lung): > 100 µM | TGI (OVCAR-3 ovarian): > 100 µM | TGI (SK-MEL-28 melanoma): > 100 µM | TGI (SK-MEL-2 melanoma): > 100 µM | TGI (MOLT-4 leukemia): 28.1 µM | TGI (NCI-H522 lung): 27.9 µM | TGI (NCI-H23 lung): > 100 µM | TGI (SN12C renal): > 100 µM | TGI (OVCAR-8 ovarian): > 100 µM

O=[N+]([O-])c1ccc(-n2nnc(C3=NCCN3)c2-c2ccc(Cl)cc2)cc1
TGI (HOP-18 NSCLC): > 100 µM | TGI (LOX IMVI melanoma): > 100 µM | TGI (RPMI-8226 leukemia): > 100 µM | TGI (HCC-2998 colon): > 100 µM | TGI (UACC-257 melanoma): > 100 µM | TGI (SW-620 colon): > 100 µM | TGI (OVCAR-4 ovarian): > 100 µM | TGI (MALME-3M melanoma): > 100 µM | TGI (K-562 leukemia): > 100 µM | TGI (OVCAR-5 ovarian): > 100 µM | TGI (SNB-78 CNS): > 100 µM | TGI (UACC-62 melanoma): > 100 µM | TGI (DMS 273 small cell lung): > 100 µM | TGI (LXFL 529 NSCLC): > 100 µM | TGI (EKVX NSCLC): > 100 µM | TGI (HCT-116 colon): > 100 µM | TGI (SNB-19 CNS): > 100 µM | TGI (UO-31 renal): > 100 µM | TGI (ACHN renal): > 100 µM | TGI (XF 498 CNS): > 100 µM | TGI (HT29 colon): > 100 µM | TGI (A549 NSCLC): > 100 µM | TGI (CAKI-1 renal): > 100 µM | TGI (786-0 renal): > 100 µM | TGI (A498 renal): > 100 µM | TGI (HOP-92 NSCLC): > 100 µM | TGI (HL-60(TB) leukemia): > 100 µM | TGI (RXF 393 renal): > 100 µM | TGI (SF-295 CNS): > 100 µM | TGI (SF-268 CNS): > 100 µM | TGI (HCT-15 colon): > 100 µM | TGI (IGROV1 ovarian): > 100 µM | TGI (HOP-62 NSCLC): > 100 µM | TGI (TK-10 renal): > 100 µM | TGI (M14 melanoma): > 100 µM | TGI (DLD-1 colon): > 100 µM | TGI (SK-OV-3 ovarian): > 100 µM | TGI (M19-MEL melanoma): > 100 µM | TGI (SK-MEL-5 melanoma): > 100 µM | TGI (SR leukemia): > 100 µM | TGI (NCI-H226 lung): > 100 µM | TGI (KM20L2 colon): > 100 µM | TGI (SNB-75 CNS): > 100 µM | TGI (CCRF-CEM leukemia): > 100 µM | TGI (DMS 114 small cell lung): > 100 µM | TGI (KM12 colon): > 100 µM | TGI (SF-539 CNS): > 100 µM | TGI (U251 CNS): > 100 µM | TGI (COLO 205 colon): > 100 µM | TGI (NCI-H460 lung): > 100 µM | TGI (OVCAR-3 ovarian): > 100 µM | TGI (SK-MEL-28 melanoma): > 100 µM | TGI (SK-MEL-2 melanoma): > 100 µM | TGI (MOLT-4 leukemia): > 100 µM | TGI (NCI-H522 lung): > 100 µM | TGI (NCI-H23 lung): > 100 µM | TGI (SN12C renal): > 100 µM | TGI (OVCAR-8 ovarian): > 100 µM
